Experimental data from ChEMBL document CHEMBL1201862, “PubChem BioAssay data set” (2004).
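1) Cells in 96-well plates. 2) Compound, 48 h, 5 concentrations. 3) Linear interpolation between surrounding doses. 4) Unreached endpoint = highest concentration. At the GI50, growth is halved.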 The source made the active and inactive calls. Rule as the data show it: active = GI50 up to about 1.1 µM and inactive = higher.

What was measured:
Assay in all cases: NCI tumour cell line growth inhibition, 48 h
MDA-N = test system: MDA-N
U-251 = test system: U-251
SK-MEL-28 = test system: SK-MEL-28
KM-20L2 = test system: KM-20L2
XF498 = test system: XF498
CCRF-CEM = test system: CCRF-CEM
K562 = test system: K562
ACHN = test system: ACHN
M14 = test system: M14
DU-145 = test system: DU-145
OVCAR-3 = test system: OVCAR-3
PC-3 = test system: PC-3
TK-10 = test system: TK-10
M19-MEL = test system: M19-MEL
SF-295 = test system: SF-295
IGROV-1 = test system: IGROV-1
COLO 205 = test system: COLO 205
SR = test system: SR
UACC-257 = test system: UACC-257
SF-268 = test system: SF-268
SK-MEL-5 = test system: SK-MEL-5
BT-549 = test system: BT-549
KM12 = test system: KM12
NCI-H23 = test system: NCI-H23
CAKI-1 = test system: CAKI-1
NCI-H226 = test system: NCI-H226
HT-29 = test system: HT-29
DMS-114 = test system: DMS-114
HOP-62 = test system: HOP-62
SW-620 = test system: SW-620
SN12C = test system: SN12C
A549 = test system: A549
RXF 393 = test system: RXF 393
OVCAR-4 = test system: OVCAR-4
HCC 2998 = test system: HCC 2998
T47D = test system: T47D
SF-539 = test system: SF-539
MDA-MB-231 = test system: MDA-MB-231
Hs-578T = test system: Hs-578T
LXFL 529 = test system: LXFL 529
SK-OV-3 = test system: SK-OV-3
HOP-92 = test system: HOP-92
DLD-1 = test system: DLD-1
NCI-H522 = test system: NCI-H522
HCT-116 = test system: HCT-116
MCF7 = test system: MCF7
MOLT-4 = test system: MOLT-4
SNB-75 = test system: SNB-75
SNB-78 = test system: SNB-78
SK-MEL-2 = test system: SK-MEL-2
RXF 631 = test system: RXF 631
UO-31 = test system: UO-31
786-0 = test system: 786-0
EKVX = test system: EKVX
NCI-H460 = test system: NCI-H460
RPMI-8226 = test system: RPMI-8226
A498 = test system: A498
SNB-19 = test system: SNB-19
HL-60 = test system: HL-60
UACC-62 = test system: UACC-62
DMS-273 = test system: DMS-273
HOP-18 = test system: HOP-18
OVCAR-8 = test system: OVCAR-8
HCT-15 = test system: HCT-15
Malme-3M = test system: Malme-3M
OVCAR-5 = test system: OVCAR-5
LOX IMVI = test system: LOX IMVI

Cc1c2ccncc2cc2c1sc1ccncc12
GI50 (MDA-N): 2670 nM (inactive)
GI50 (U-251): 2220 nM (inactive)
GI50 (SK-MEL-28): 5820 nM (inactive)
GI50 (KM-20L2): 5500 nM (inactive)
GI50 (XF498): 12100 nM (inactive)
GI50 (CCRF-CEM): 1210 nM (inactive)
GI50 (K562): 4140 nM (inactive)
GI50 (ACHN): 1060 nM (active)
GI50 (M14): 4530 nM (inactive)
GI50 (DU-145): 1970 nM (inactive)
GI50 (OVCAR-3): 6560 nM (inactive)
GI50 (PC-3): 1860 nM (inactive)
GI50 (TK-10): 7290 nM (inactive)
GI50 (M19-MEL): 3940 nM (inactive)
GI50 (SF-295): 1960 nM (inactive)
GI50 (IGROV-1): 3470 nM (inactive)
GI50 (COLO 205): 3240 nM (inactive)
GI50 (SR): 325 nM (active)
GI50 (UACC-257): 3850 nM (inactive)
GI50 (SF-268): 3660 nM (inactive)
GI50 (SK-MEL-5): 1680 nM (inactive)
GI50 (BT-549): 2490 nM (inactive)
GI50 (KM12): 3550 nM (inactive)
GI50 (NCI-H23): 2510 nM (inactive)
GI50 (CAKI-1): 2010 nM (inactive)
GI50 (NCI-H226): 684 nM (active)
GI50 (HT-29): 2730 nM (inactive)
GI50 (DMS-114): 6210 nM (inactive)
GI50 (HOP-62): 1740 nM (inactive)
GI50 (SW-620): 1450 nM (inactive)
GI50 (SN12C): 2000 nM (inactive)
GI50 (A549): 845 nM (active)
GI50 (RXF 393): 5240 nM (inactive)
GI50 (OVCAR-4): 5710 nM (inactive)
GI50 (HCC 2998): 5520 nM (inactive)
GI50 (T47D): 2040 nM (inactive)
GI50 (SF-539): 4560 nM (inactive)
GI50 (MDA-MB-231): 3570 nM (inactive)
GI50 (Hs-578T): 2390 nM (inactive)
GI50 (LXFL 529): 6680 nM (inactive)
GI50 (SK-OV-3): 2230 nM (inactive)
GI50 (HOP-92): 8220 nM (inactive)
GI50 (DLD-1): 4180 nM (inactive)
GI50 (NCI-H522): 2140 nM (inactive)
GI50 (HCT-116): 1750 nM (inactive)
GI50 (MCF7): 410 nM (active)
GI50 (MOLT-4): 468 nM (active)
GI50 (SNB-75): 3800 nM (inactive)
GI50 (SNB-78): 13000 nM (inactive)
GI50 (SK-MEL-2): 6170 nM (inactive)
GI50 (RXF 631): 2250 nM (inactive)
GI50 (UO-31): 1270 nM (inactive)
GI50 (786-0): 2060 nM (inactive)
GI50 (EKVX): 3170 nM (inactive)
GI50 (NCI-H460): 485 nM (active)
GI50 (RPMI-8226): 993 nM (active)
GI50 (A498): 4310 nM (inactive)
GI50 (SNB-19): 2740 nM (inactive)
GI50 (HL-60): 877 nM (active)
GI50 (UACC-62): 2160 nM (inactive)
GI50 (DMS-273): 2090 nM (inactive)
GI50 (HOP-18): 7710 nM (inactive)
GI50 (OVCAR-8): 2610 nM (inactive)
GI50 (HCT-15): 1900 nM
GI50 (Malme-3M): 4160 nM (inactive)
GI50 (OVCAR-5): 3180 nM (inactive)
GI50 (LOX IMVI): 1570 nM (inactive)
